From US7728146B2, “Enzyme inhibitors” (Probiodrug AG, priority 2006, dated 2010)

Test system: male Sprague Dawley rats
Experiment: Circadian courses of activity, feeding and drinking behaviour; body weight, food and fluid consumption during chronic administration
Format: in vivo, rat
Settings: vs vehicle
Description: Example 130b as hydrochloride salt was dissolved in tap water in concentrations of 0.03, 0.1 and 0.3 mg/ml. Assuming a daily fluid intake of approx. 30 ml per animal (animal's weight: approx. 300 g), these concentrations should result in doses of approx. 3, 10 and 30 mg/kg/day. The solutions were prepared freshly every day. During chronic administration, solution offer was limited to 40 ml per day for each animal.
Imipramine was dissolved 0.5% Natrosol and administered once daily i.p. for 8 days (test group TG 11, see below) with a dose of 15 mg/kg/day in a volume of 1 ml/kg.
216 male Sprague Dawley rats. The animals were 6 weeks old at the start of the study. They were housed in groups of 4 animals (“acute animals”) or in single cages (“chronic animals”) at 12 h/12 h light/dark (start of the light phase at 2 a.m.), 20° C., 60% rH. Animals were provided by Elevage Janvier, France.
During the 7 days lasting period of chronic compound administration, animals were kept singly. On the first day they were kept in single Macrolon home cages. On the next day they were transferred to activity monitoring cages and kept there for 3 days. For the following 3 days they returned to their home cages (single housing).
Animals received the test compound chronically via the drinking fluid. The reference compound Imipramine was given i.p. (one administration per day, one hour before the respective tests). Fluid supply was restricted to 40 ml per day for all test groups. On the first day of chronic test compound exposure, animals were kept singly in standard single home cages to enable an individual assessment of test compound intake. On the second day, animals were transferred to infrared monitoring cages for 3 days. Food and fluid offer were the same as in the home cage. Measuring rearing activity near fluid bottles and food grid enabled an assessment of the time structure of food and water (compound) consumption. Behavioural observation started one hour before the beginning of the dark phase (2 p.m.). After 22 hours, body weight, food and fluid consumption were measured. 2 hours later, the next recording started.
Raw data were provided as computer files accompanied by written protocol sheets. As the animals were still adapting to the environment and administration the time courses of the following parameters were calculated only for the last day of registration: • Food and fluid intake (time %) • Number of feeding and […] bouts • Meal pattern parameters reflecting e.g. the duration and recurrence of feeding and drinking bouts • Total distance travelled (cm/min) • Small movements (cm/min) • Distance travelled with rapid locomotion (cm/min) • Distance travelled with slow locomotion (cm/min) • Immobility (time %) • Use of available space (%) • Locomotor stereotypies (score, first hour of the dark phase only) • Rearing (time %) • Number of rearing acts (N) Feeding and Drinking Bouts and Bout-Related Analysis:
On the basis of high-resolution infrared beam recordings, feeding and drinking is identified by means of beam interruption in the upper frame near to the positions of food or water. Feeding or drinking acts are then defined as temporally contingent behavioural pattern separated from each other by intervals not longer than 0.5 seconds. Normally, several acts form a feeding or drinking bout. The intervals within a bout are definitely shorter than between subsequent bouts. A threshold interval can be set to distinguish between intra-bout and inter-bout intervals.
Stereotyped locomotion was assessed by means of statistical comparisons between the observed locomotor sequences (as described by the movement from one of the 4×4 subsquares to another) and a “random walk”. The comparison is performed at 5 different levels:
The coefficient of locomotor stereotypies (SC, in %) at each level has a value of SC=0 when there are no regularities within the movement pattern (random walk). […]

[1] = circadian registration, Imipramine 15 mg/kg/day i.p., Example 130b approx. 3, 10, 30 mg/kg/day
[2] = Imipramine 15 mg/kg/day i.p., Example 130b hydrochloride approx. 3, 10, 30 mg/kg/day via drinking fluid

For `NCc1c(-c2ccc(Cl)cc2Cl)ncn1Cc1ccsc1` [Example 130b, (4-(2,4-dichlorophenyl)-1-((thiophen-3-yl)methyl)-1H-imidazol-5-yl)methanamine], which “cumulated number of drinking bouts” value (22 hours of measurement, Example 130b approx. 3, 10, 30 mg/kg/day) is on record?
Its value is “dose-dependently reached a lower total number”.

What about the “horizontal and vertical (locomotor) activity” value [1] of the same compound?
Its value is “no statistically significant effects”.

And the “time accessing food and water (fluid)” value [1]?
The value was “did not differ”.

And the “locomotor stereotypies (stereotypy index)” value (first hour of the dark phase, Imipramine: level 2, 3 and 4 stereotypies, Example 130b: usage of available space or stereotypy index)?
The value was “no statistically significant effects”.

And the “body weight (gain)” value [2]?
The value was “not affected”.

And the fluid intake [2]?
The fluid intake was “dose-dependently led to a reduction”.

And the food intake [2]?
The food intake was “not affected”.
